Tests used:
[1] = Metabolic stability in rat liver microsomes; conditions: SD
Source text: (§1) The metabolism was monitored by HPLC-MS/MS. Verapamil served as positive control.

RSV-B = experiment: Antiviral activity on RSV-B in Hep-2 cells; type: cell-based; conditions: human respiratory syncytial virus, 48 h, two days after infection
Source text: (§2) The following results were obtained:

[2] = tested on: SARS-CoV-2 reporter virus d6-YFP (WT); experiment: microbe, parasite or virus in culture; type: cell-based; conditions: Severe acute respiratory syndrome coronavirus 2, Caco-2
[3] = Metabolic stability in human liver microsomes
Source text: as §1

RSV-A2 = experiment: Antiviral activity on RSV-A2 in Hep-2 cells; conditions: human respiratory syncytial virus, HEp-2, 48 h, read-out: RSV-A2 IC50
in vitro [4] = type: cell-based; conditions: human
Source text: as §2

[5] = Mouse pharmacokinetics, female, deuteration matched pair analysis; type: in vivo, mice (C57BL/6J)
Method: In another matched pair analysis the benefit of deuteration of the N-methoxyacetamide moiety was tested: the pharmacokinetic properties of the compounds were evaluated in 3 female mice (C57BL/6J, 8 week old) after oral or intravenous cassette dosing to assess the oral bioavailability. Dose was 5 mg/kg (oral) and 1 mg/kg (intravenous), application volume was 5 mL/kg (oral) and 2 mL/kg (intravenous), vehicle was 5% solutol, 95% NaCl solution (at 0.9% saline concentration) for oral and 5% solutol, 5% ethanol, 90% NaCl solution (at 0.9% saline concentration) for intravenous application. At each designated time point (0.25, 0.5, 1, 2, 4 and 8 h after dosing for oral; 0.083, 0.25, 0.5, 1, 4 and 8 h after dosing for intravenous), 20 μL whole blood were collected from the tail vein into Li-heparin tubes, frozen on dry ice within 1-2 minutes of sampling and stored at −20° C. until processed for LC-MS analysis.

[6] = molecular target: N-terminally truncated recombinant hDHODH enzyme (Homo sapiens, UniProt Q02127); experiment: biochemical; type: biochemical; conditions: human DHODH assay; read-out: IC50 range
Sequence of N-terminally truncated recombinant hDHODH enzyme (Q02127 whole entry, looked up, the tested form may be a part): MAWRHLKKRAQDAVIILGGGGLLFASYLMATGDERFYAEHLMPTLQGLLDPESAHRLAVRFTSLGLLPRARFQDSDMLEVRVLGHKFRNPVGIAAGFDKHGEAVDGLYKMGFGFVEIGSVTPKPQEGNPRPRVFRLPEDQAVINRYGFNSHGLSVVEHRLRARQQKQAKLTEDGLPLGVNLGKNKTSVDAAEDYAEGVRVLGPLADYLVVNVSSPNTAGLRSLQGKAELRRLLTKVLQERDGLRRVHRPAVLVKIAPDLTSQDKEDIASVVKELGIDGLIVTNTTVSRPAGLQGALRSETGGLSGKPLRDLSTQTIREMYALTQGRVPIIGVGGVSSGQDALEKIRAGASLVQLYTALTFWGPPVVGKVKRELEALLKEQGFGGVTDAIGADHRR
Procedure, shortened: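 DCIP reduction followed at 600 nm for 2 min, with 60 μM 2,6-dichloroindophenol, 50 μM decylubiquinone and 100 μM dihydroorotate (reaction started with dihydroorotate). Buffer 50 mM TrisHCl, 150 mM KCl, 0.1% Triton X-100, pH 8.0, 30° C. IC50 from at least six compound concentrations.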

human rhinovirus HRV-14 = experiment: Antiviral activity on human rhinovirus; type: cell-based; conditions: Rhinovirus B, HRV14; HRV-14; read-out: EC50
[7] = Cytotoxicity in human rhinovirus test
RSV-Long = experiment: Antiviral activity on RSV-Long in Hep-2 cells; type: cell-based; conditions: human respiratory syncytial virus, 48 h, two days after infection
Source text: as §2

SARS-CoV-2 = SARS-CoV-2 viral replication (YFP) assay; type: cell-based; conditions: Severe acute respiratory syndrome coronavirus 2, read-out: EC50 range
in vitro [8] = experiment: in vitro

| SMILES | microsomal CLint ([1]; female) [µL/min/mg] | microsomal CLint ([1]; male) [µL/min/mg] | IC50 (RSV-B) [nM] | EC50 [2] [nM] | microsomal CLint ([3]; female) [µL/min/mg] | microsomal CLint ([3]; male) [µL/min/mg] | IC50 (RSV-A2) [nM] | CC50 at 2 days (in vitro [4]) [nM] | AUC(0-t) ([5]; C57BL/6J, mouse, in vivo, female mice, 0 to 8 h) [ng·h/mL] | Cmax ([5]; C57BL/6J, mouse, in vivo, female mice, 5 mg/kg oral, 1 mg/kg intravenous cassette) [ng/mL] | F ([5]; female mice, bioavailability) [%] | half-life ([5]; female, C57BL/6J, mouse, in vivo) [h] | IC50 [6] [nM] | EC50 (human rhinovirus HRV-14) [nM] | CC50 [7] [nM] | IC50 (RSV-Long) [nM] | EC50 (SARS-CoV-2) [nM] | CC50 (in vitro [8]) [nM] |
| --- | --- | --- | --- | --- | --- | --- | --- | --- | --- | --- | --- | --- | --- | --- | --- | --- | --- | --- |
| [2H]C([2H])([2H])Oc1cccc(-c2cc(F)c(NC(=O)c3ccsc3C(=O)NOC)c(F)c2)c1 [Example 9, N3-(3,5-Difluoro-3′-(methoxy-d3)-[1,1′-biphenyl]-4-yl)-N2-methoxythiophene-2,3-di-carboxamide] | 63.8 | 183 | < 100 | 72 | 55.5 | 76.5 | < 100 | 45300 | 12300 | 3000 | 49 | 2.6 | < 100 | 14 | > 25000 | < 100 | < 1000 |  |
| CCOC(=O)c1ccc(OCCC2CCN(c3ccc(C)nn3)CC2)cc1 [pirodavir] |  |  |  |  |  |  |  |  |  |  |  |  |  | 0.3 |  |  |  | 4500 |

— patent publication US20250066290A1, “DHODH INHIBITORS CONTAINING A CARBOXYLIC ACID BIOISOSTERE” (IMMUNIC AG, priority 2021, published 2025)
